# From US10695330B2, “Methods of treatment” (Global Blood Therapeutics, Inc., priority 2015, dated 2020)
# Tests used:
# Hb = biological target: T1, Hb (Mus musculus, UniProt P01942); assay: LPS-induced acute lung injury mouse model: PK/PD (Hb occupancy, hemoximetry); format: in vivo; conditions: LPS-induced ALI mice
# T1 construct: from tissue; host or cells: whole blood (red blood cells) of dosed C57BL / C57BL/6J mice
# Protocol: (§1) Adult, 8-10-week-old male C57BL/6J mice (Jackson Laboratory, Bar Harbor, Me.), were anesthetized with isoflurane, injected with 100 μg LPS (Sigma, St. Louis, Mo.) in 100 μL PBS by direct intratracheal injection. After 24 hours, mice were given Compound 1 (70 or 140 mg/kg formulated in dimethylacetamide, polyethylene glycol 400 (PEG400) and 40% cavitron in a ratio of 1:5:4, respectively) or vehicle only (5 μL/g) by oral gavage 2 hours prior to placement in a hypoxia chamber. Mice were exposed to either 10 or 5% O2 for 4 hours. Oxygen saturation (SaO2) was measured with a pulse oximeter (STARR Life Sciences, Oakmont, Pa.) at baseline and hourly during hypoxic exposure. During hypoxic exposure, mice were monitored continuously and a moribund check was done every 15 minutes. Time to death was assessed by time to moribund status. Mice were determined to be moribund if they could not right themselves when placed in a supine position.
# (§2) Blood was collected by cardiac puncture in the hypoxic chamber. Blood gases were measured using the i-STAT portable analyzer within the hypoxic environment (Abaxis, Union City, Calif.). Remaining blood samples were used for hemoximetry and pharmacokinetic analysis. For sample collection, mice were euthanized with pentobarbital overdose. A bronchoaleveolar lavage (BAL) was performed with 900 uL Saline. Blood was collected by retro orbital puncture, and then spun to collect plasma. Lungs were removed and flash frozen. All samples were stored at −80° C. until further study. BAL inflammatory cell counts and differentials were determined manually after staining cytospins with DiffQuik. BAL protein was measured using a Pierce BCA Protein Assay Kit (Thermo Scientific, Waltham, Mass.).
# Hemoximetry was used to determine the PD effect of Compound 1 in whole blood from dosed mice as described above. Representative oxygen equilibrium curves (OECs) of whole blood obtained from mice dosed with Compound 1 (blue and red lines) or vehicle only (black line) are shown in FIG. 3A.
# activated neutrophils = assay: Oxidative burst in activated neutrophils; format: cell-based; conditions: in vitro
# Text: Reactive oxygen species (ROS) released from activated white blood cells cause lung injury as well as fibrotic changes in patients with IPF. […] Thus, the compounds described herein could also provide a method to inhibit the adverse effects of inflammation in a patient. Reduction in systemic pro-inflammatory cytokines (tumor necrosis alpha and interleukin-6) also has the potential to exert a broad anti-inflammatory effect which would supplement the beneficial effect of alleviation of hypoxemia via increased hemoglobin-O2 affinity.
# [1] = tested on: mice with LPS-induced ALI; assay: LPS-induced acute lung injury mouse model with hypoxic challenge: inflammation, SpO2, survival; format: in vivo; conditions: for survival: after 4 hours of exposure to 5% O2 hypoxia; for increase of SpO2, of control value: 5% O2 hypoxia
# Protocol: as §1, §2
# Using a MouseOx, peripheral arterial O2 saturation (SpO2) was measured during hypoxia. SpO2 was measured for each group every hour during hypoxia. In general, SpO2 decreased during hypoxia for all groups. […] For example, during 5% O2 hypoxia, Compound 1 at 70 mg/kg or 140 mg/kg increased SpO2 by 22% or 31% of control value, respectively.
# During exposure hypoxia, mice were monitored continuously and a moribund check was done every 15 minutes. Time to death was assessed by time to moribund status. Mice were determined to be moribund if they could not right themselves when placed in a supine position.
# T1 sequence (P01942 2-142 limits assumed): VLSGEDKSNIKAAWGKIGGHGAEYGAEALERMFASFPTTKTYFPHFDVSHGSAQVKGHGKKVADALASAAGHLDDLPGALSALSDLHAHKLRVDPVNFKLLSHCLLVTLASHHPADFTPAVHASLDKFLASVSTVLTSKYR
# T1 sequence (P02088 2-147 partner limits assumed): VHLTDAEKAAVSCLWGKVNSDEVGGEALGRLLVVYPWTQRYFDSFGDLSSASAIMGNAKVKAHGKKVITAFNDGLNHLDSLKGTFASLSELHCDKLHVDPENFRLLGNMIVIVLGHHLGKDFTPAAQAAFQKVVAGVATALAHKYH
structure (smiles),measurement,setting,value
"O=Cc1c(O)cccc1OC[C@@H]1CCCCN1C(=O)c1cccnc1 [Compound 1, (S)-2-hydroxy-6-((1-nicotinoylpiperidin-2-yl)methoxy)benzaldehyde]",Hb occupancy,Hb; 70 mg/kg oral,~19%
same,Hb occupancy,Hb; 140 mg/kg oral,~27%
same,Hb O2 affinity (left-shift in the OEC) in whole blood from dosed mice,"Hb; 70 or 140 mg/kg oral, vs vehicle",dose-dependent increase in Hb O2 affinity relative to control
same,anti-oxidative activity (oxidative burst),activated neutrophils,displayed anti-oxidative
same,"inflammation or lung injury (BALF total cells, neutrophils, macrophages, total protein)",[1]; 100 μg LPS intratracheal,no significant effect on inflammation or lung injury
same,survival,[1]; 70 mg/kg,60%
same,survival,[1]; 140 mg/kg,86%
same,"increase of SpO2, of control value",[1]; 70 mg/kg,22%
same,"increase of SpO2, of control value",[1]; 140 mg/kg,31%
same,SpO2 compared to control,"[1]; during 10% and 5% O2 hypoxia, average over 4 hours",higher in Compound 1 dosed mice compared to control
